Format in all cases: binding
Experiment [1] has as its target T1, Recombinant human integrin αVβ3 (Homo sapiens, UniProt P05106+P06756).
T1 construct: purchased R&D Systems 3050-AV
The experiment in a line: Solid Phase Receptor Assay for αVβ3 function. Particulars: plate-bound human vitronectin; read-out: αVβ3 SPRA IC50. The method, then:
C. […] Wells were washed 3 times with 150 μL TBS+ and then 150 μL of blocking buffer (TBS+ with 1% bovine serum albumin, Sigma A7906) was added. The plate was incubated for 1 hr at 37° C. and then washed 3× with TBS+ buffer. […] Compounds were diluted to 20 μM and then 1 μL was added to each well of the plate according to a standard template with each sample repeated in triplicate. After incubation for two hours at room temperature, the plate was washed 3× with 150 μL of TBS+ buffer. To each well, 50 μL of biotinylated anti-αV antibody (R&D Systems, BAF1219) at 0.5 μg/mL in TBS+/0.1% BSA were added and the plate covered and incubated for 1 hr at room temperature. After washing the plate 3× with 150 μL of TBS+ buffer, 50 μL of streptavidin-conjugated horseradish peroxidase (R&D Systems, DY998) diluted in TBS+ blocking buffer were added to the wells and the plate incubated for 20 min at room temperature. The plate was washed 3× with TBS+ buffer followed by 50 μL of TMB substrate (Sigma, T4444) added to each well in the dark and the plate was incubated for 25 min at room temperature. 25 μL of 1.0 M phosphoric acid was added as a stop solution and the plates were read at 450 nm using a Spectramax plate reader.

Experiment [2] concerns the target T2, Recombinant human integrin α5β1 (Homo sapiens, UniProt P05556+P08648).
T2 construct: purchased R&D Systems 3230-A5
The experiment in a line: Solid Phase Receptor Assay (SPRA) for α5β1 function. Particulars: plate-bound human fibronectin. The method, then:
A. Solid Phase Receptor Assay (SPRA) for α5β1 Function
Wells were washed 3 times with 150 μL TBS+ and then 150 μL of blocking buffer (TBS+ with 1% bovine serum albumin, Sigma A7906) was added. The plate was incubated for 1 hr at 37° C. and then washed 3× with TBS+ buffer. […] Compounds were diluted to 20 μM and then 1 μL was added to each well of the plate according to a standard template with each sample repeated in triplicate. After incubation for two hours at room temperature, the plate was washed 3× with 150 μL of TBS+ buffer. To each well, 50 μL of biotinylated anti-α5 antibody (R&D Systems, BAF1864) at 0.5 μg/mL in TBS+/0.1% BSA were added and the plate covered and incubated for 1 hr at room temperature. After washing the plate 3× with 150 μL of TBS+ buffer, 50 μL of streptavidin-conjugated horseradish peroxidase (R&D Systems, DY998) diluted in TBS+ blocking buffer were added to the wells and the plate incubated for 20 min at room temperature. The plate was washed 3× with TBS+ buffer followed by 50 μL of room temperature TMB substrate (Sigma, T4444) added to each well in the dark and the plate incubated for 25 min at room temperature. 25 μL of 1.0 M phosphoric acid was added as a stop solution and the plates were read at 450 nm using a Spectramax plate reader.

For experiment [3], the target named is T3, Recombinant human integrin αVβ8 (Homo sapiens, UniProt P06756+P26012).
T3 construct: purchased R&D Systems 4135-AV
T3 sequence (P06756 31-992 limits assumed): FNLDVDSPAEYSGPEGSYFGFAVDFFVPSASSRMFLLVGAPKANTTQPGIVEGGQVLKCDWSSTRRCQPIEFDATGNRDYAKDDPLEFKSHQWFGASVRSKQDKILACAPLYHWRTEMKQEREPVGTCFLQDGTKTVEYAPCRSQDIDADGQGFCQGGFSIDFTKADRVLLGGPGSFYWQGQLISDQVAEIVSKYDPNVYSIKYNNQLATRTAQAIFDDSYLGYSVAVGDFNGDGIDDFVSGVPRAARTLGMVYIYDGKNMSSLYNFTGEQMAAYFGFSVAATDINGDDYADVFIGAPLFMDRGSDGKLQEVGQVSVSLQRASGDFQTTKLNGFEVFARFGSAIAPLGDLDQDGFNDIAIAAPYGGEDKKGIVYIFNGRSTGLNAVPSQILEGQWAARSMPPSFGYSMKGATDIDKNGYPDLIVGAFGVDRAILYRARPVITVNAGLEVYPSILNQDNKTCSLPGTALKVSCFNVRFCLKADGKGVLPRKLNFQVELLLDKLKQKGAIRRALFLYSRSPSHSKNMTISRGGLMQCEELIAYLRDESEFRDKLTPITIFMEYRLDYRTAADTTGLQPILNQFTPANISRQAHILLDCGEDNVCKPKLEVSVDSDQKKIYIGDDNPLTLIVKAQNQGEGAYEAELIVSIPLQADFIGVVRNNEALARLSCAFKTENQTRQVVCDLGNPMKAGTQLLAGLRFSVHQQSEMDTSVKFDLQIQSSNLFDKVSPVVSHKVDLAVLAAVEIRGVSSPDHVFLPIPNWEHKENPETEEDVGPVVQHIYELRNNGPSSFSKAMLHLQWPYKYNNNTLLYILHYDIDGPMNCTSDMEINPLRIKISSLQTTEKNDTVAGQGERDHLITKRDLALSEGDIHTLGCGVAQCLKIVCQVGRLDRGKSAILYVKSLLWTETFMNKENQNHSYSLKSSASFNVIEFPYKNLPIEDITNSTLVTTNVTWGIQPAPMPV
T3 sequence (P26012 43-684 limits assumed): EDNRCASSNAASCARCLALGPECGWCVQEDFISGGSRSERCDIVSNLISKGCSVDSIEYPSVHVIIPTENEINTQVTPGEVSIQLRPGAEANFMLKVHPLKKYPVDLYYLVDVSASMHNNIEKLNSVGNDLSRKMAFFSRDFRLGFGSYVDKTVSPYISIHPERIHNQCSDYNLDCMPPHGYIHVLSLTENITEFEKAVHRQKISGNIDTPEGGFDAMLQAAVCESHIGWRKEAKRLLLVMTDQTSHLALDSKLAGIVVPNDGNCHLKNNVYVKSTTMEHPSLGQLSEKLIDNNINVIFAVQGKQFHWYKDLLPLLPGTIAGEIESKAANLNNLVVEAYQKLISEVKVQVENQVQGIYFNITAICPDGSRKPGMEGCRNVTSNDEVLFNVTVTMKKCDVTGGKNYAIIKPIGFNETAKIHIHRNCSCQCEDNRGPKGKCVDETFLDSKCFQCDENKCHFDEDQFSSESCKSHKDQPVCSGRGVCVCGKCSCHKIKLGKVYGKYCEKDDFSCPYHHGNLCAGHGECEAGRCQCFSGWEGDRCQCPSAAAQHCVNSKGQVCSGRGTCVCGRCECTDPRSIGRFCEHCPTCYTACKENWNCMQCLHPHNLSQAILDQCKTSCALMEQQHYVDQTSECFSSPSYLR
Put plainly: Solid Phase Receptor Assay for αVβ8 function. The note with it: plate-bound human LAP; read-out: αVβ8 SPRA IC50. The method, then:
F. Solid Phase Receptor Assay (SFRA) for αVβ8 Function
Wells were washed 3 times with 150 μL TBS+ and then 150 μL of blocking buffer (TBS+ with 1% bovine serum albumin, Sigma A7906) was added. The plate was incubated for 1 hr at 37° C. and then washed 3× with TBS+. […] Compounds were diluted to 20 μM and 1 μL was added to each well of the plate according to a standard template with each sample repeated in triplicate. After incubation for two hours at room temperature, the plate was washed 3× with 150 μL of TBS+. To each well, 50 μL of biotinylated anti-αV antibody (R&D Systems, BAF1219) at 1 μg/mL in TBS+/0.1% BSA were added and the plate was covered and incubated for 1 hr at room temperature. After washing the plate 3× with 150 μL of TBS+ buffer, 50 μL of streptavidin-conjugated horseradish peroxidase (R&D Systems, DY998) diluted in TBS+ blocking buffer were added to the wells and the plate incubated for 20 min at room temperature. The plate was washed 3× with TBS+ followed by 50 μL of TMB substrate (Sigma T4444) added to each well in the dark and the plate incubated for 10 min at room temperature. 25 μL of 1.0 M phosphoric acid was added as a stop solution and the plates were read at 450 nm using a Spectramax plate reader.

The target of experiment [4] is T4, Recombinant human integrin αVβ5 (Homo sapiens, UniProt P06756+P18084).
T4 construct: purchased R&D Systems 2528-AV
T4 sequence (P06756 31-992 limits assumed): as the sequence (P06756 31-992 limits assumed) above
T4 sequence (P18084 24-719 limits assumed): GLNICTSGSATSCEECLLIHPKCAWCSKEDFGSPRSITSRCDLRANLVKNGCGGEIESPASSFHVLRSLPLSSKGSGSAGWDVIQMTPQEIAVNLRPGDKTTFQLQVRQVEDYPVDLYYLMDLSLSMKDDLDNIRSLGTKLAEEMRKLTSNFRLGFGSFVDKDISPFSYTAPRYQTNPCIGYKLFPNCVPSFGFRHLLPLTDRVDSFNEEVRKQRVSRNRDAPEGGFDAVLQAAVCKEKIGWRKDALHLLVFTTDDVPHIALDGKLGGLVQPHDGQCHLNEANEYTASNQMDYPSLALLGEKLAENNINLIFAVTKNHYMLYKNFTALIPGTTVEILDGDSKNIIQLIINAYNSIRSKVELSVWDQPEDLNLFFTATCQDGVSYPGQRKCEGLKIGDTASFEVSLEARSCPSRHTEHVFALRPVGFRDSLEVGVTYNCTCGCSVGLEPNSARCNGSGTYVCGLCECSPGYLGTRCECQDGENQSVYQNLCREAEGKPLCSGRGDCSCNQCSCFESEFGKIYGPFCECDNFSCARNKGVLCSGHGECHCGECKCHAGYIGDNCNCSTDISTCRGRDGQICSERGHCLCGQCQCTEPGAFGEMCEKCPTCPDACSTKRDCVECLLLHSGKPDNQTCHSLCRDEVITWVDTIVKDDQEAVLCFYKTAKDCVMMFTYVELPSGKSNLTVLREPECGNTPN
The experiment in a line: Solid Phase Receptor Assay (SPRA) for αVβ5 function. The note with it: plate-bound human vitronectin. The method, then: D. Solid Phase Receptor Assay (SPRA) for αVβ5 Function
Wells were washed 3 times with 150 μL TBS+ and then 150 μL of blocking buffer (TBS+ with 1% bovine serum albumin, Sigma A7906) was added. The plate was incubated for 1 hr at 37° C. and then washed 3× with TBS+ buffer. […] Compounds were diluted to 20 μM and then 1 μL was added to each well of the plate according to a standard template with each sample repeated in triplicate. After incubation for two hours at room temperature, the plate was washed 3× with 150 μL of TBS+ buffer. To each well, 50 μl of biotinylated anti-αV antibody (R&D Systems, BAF1219) at 0.5 μg/mL in TBS+/0.1% BSA at 0.5 μg/mL were added and the plate covered and incubated for 1 hr at room temperature. After washing the plate 3× with 150 μL of TBS+ buffer, 50 μL of streptavidin-conjugated horseradish peroxidase (R&D Systems, DY998) diluted in TBS+ blocking buffer were added to the wells and the plate incubated for 20 min at room temperature. The plate was washed 3× with TBS+ buffer followed by 50 μL of TMB substrate (Sigma T4444) added to each well in the dark and the plate incubated for 5 min at room temperature. 25 μL of 1.0 M phosphoric acid was added as a stop solution and the plates were read at 450 nm using a Spectramax plate reader.

The structures appear in SMILES notation.

T1 sequence (P06756 31-992 limits assumed): as the sequence (P06756 31-992 limits assumed) above
T1 sequence (P05106 27-718 limits assumed): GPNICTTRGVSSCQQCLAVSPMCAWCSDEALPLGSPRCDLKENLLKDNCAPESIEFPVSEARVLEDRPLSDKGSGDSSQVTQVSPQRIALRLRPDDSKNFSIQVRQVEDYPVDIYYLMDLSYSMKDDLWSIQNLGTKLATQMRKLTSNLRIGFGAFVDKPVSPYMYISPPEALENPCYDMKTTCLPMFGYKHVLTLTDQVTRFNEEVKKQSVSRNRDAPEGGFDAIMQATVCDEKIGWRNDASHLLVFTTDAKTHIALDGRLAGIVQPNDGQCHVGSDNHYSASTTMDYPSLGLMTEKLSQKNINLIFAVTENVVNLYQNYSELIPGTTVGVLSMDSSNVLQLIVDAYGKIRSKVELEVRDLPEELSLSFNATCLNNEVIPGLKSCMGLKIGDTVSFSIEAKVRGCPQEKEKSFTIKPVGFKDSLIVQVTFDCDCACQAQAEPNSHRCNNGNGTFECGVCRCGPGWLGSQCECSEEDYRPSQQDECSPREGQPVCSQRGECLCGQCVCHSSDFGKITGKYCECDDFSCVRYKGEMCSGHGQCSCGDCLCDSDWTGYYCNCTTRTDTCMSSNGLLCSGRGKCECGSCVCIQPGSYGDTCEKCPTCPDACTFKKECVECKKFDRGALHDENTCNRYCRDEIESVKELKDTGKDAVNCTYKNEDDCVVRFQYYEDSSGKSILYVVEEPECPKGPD
T2 sequence (P08648 42-995 limits assumed): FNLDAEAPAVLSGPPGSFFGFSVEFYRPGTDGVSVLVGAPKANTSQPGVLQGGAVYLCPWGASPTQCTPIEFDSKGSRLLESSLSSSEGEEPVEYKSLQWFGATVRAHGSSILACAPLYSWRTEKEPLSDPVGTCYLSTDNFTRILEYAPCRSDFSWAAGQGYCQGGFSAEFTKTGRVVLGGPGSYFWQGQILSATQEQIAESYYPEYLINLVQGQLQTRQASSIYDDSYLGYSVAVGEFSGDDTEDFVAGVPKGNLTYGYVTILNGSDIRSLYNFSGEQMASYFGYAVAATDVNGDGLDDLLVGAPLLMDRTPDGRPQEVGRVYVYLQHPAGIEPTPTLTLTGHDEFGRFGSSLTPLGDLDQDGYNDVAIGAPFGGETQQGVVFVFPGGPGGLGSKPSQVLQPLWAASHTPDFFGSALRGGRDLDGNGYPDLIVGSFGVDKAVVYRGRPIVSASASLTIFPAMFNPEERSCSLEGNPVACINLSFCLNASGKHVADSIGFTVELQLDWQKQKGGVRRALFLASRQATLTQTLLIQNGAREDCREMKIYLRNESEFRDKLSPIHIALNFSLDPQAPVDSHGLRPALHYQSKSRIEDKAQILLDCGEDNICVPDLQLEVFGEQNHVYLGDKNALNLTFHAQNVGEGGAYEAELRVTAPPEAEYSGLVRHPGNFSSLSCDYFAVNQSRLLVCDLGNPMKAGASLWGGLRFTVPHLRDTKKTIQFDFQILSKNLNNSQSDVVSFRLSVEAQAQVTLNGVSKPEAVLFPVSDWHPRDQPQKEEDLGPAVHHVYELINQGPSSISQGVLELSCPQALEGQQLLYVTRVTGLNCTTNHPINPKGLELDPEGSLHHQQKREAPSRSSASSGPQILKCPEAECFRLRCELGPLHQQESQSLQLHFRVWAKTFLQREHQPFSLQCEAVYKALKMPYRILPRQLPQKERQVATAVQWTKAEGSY
T2 sequence (P05556 21-728 limits assumed): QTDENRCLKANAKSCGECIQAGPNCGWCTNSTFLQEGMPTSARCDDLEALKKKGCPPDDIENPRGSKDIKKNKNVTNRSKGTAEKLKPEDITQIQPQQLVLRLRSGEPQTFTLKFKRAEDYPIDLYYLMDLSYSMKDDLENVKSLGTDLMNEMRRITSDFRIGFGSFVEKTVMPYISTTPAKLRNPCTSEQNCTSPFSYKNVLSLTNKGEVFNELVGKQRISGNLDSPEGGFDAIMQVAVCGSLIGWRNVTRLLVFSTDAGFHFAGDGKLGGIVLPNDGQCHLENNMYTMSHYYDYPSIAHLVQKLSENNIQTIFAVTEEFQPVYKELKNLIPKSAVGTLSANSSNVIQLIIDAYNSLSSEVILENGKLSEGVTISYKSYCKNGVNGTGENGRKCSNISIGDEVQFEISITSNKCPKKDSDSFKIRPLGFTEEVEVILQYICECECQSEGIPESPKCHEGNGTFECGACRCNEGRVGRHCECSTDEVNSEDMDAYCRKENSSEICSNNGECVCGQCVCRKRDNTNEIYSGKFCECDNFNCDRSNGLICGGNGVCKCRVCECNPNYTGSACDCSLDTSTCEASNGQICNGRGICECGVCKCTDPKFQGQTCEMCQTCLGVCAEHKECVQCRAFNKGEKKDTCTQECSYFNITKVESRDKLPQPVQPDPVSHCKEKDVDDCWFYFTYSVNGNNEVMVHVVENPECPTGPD

For the compound `O=C(O)CC(Cc1cc(OCCc2ccc3c(n2)NCCC3)[nH]n1)c1cccc(F)c1` (stereo not shown) [CC2, reference compound], the IC50 stood at 3.1 nM in experiment [1], 770 nM in experiment [2], 680 nM in experiment [3] and 0.2 nM in experiment [4].
For the compound `COCC1(c2cc(C(CC(=O)O)Cc3cc(OCCc4ccc5c(n4)NCCC5)n(C)n3)cc(C(C)(C)C)c2)CCOCC1` (stereo not shown) [Example 1, 3-[3-tert-butyl-5-[4-(methoxymethyl)tetrahydropyran-4-yl]phenyl]-4-[1-methyl-5-[2-(5,6,7,8-tetrahydro-1,8-naphthyridin-2-yl)ethoxy]pyrazol-3-yl]butanoic acid], the IC50 in experiment [1] was found to be 48 nM; in experiment [2], 2 nM; in experiment [3] it was 27 nM; in experiment [4], 44 nM.
`CC(C)c1cc(C#N)cc(C(CC(=O)O)Cc2cc(OCCc3ccc4c(n3)NCCC4)n(C)n2)c1` (stereo not shown) [Example 2, 3-(3-cyano-5-isopropylphenyl)-4-(1-methyl-5-(2-(5,6,7,8-tetrahydro-1,8-naphthyridin-2-yl)ethoxy)-1H-pyrazol-3-yl)butanoic acid trifluoroacetic acid]: the IC50 in experiment [1] worked out at 6 nM; in experiment [2] it was 7 nM; in experiment [3] it was 7 nM; in experiment [4], 0.3 nM.
As for `Cn1nc(CC(CC(=O)O)c2cc(Br)cc(S(F)(F)(F)(F)F)c2)cc1OCCc1ccc2c(n1)NCCC2` (stereo not shown) [Example 3, 3-[3-bromo-5-(pentafluoro-sulfanyl)phenyl]-4-[1-methyl-5-[2-(5,6,7,8-tetrahydro-1,8-naphthyridin-2-yl)ethoxy]pyrazol-3-yl]butanoic acid], the IC50 in experiment [1] is 8 nM; in experiment [2], 31 nM; in experiment [3], 13 nM; in experiment [4], 2 nM.
For `CC(C)c1cc(C(C)C)cc(C(CC(=O)O)Cc2cc(OCCc3ccc4c(n3)NCCC4)n(C)n2)c1` (stereo not shown) [Example 4, 3-(3,5-diisopropylphenyl)-4-[1-methyl-5-[2-(5,6,7,8-tetrahydro-1,8-naphthyridin-2-yl)ethoxy]pyrazol-3-yl]butanoic acid] the same measures were 15 nM, 4 nM, 18 nM and 6 nM.
In the case of `Cn1nc(CC(CC(=O)O)c2cc(C(C)(C)C)cc(C(C)(C)C(F)(F)F)c2)cc1OCCc1ccc2c(n1)NCCC2` (stereo not shown) [Example 5, 3-(3-(tert-butyl)-5-(1,1,1-trifluoro-2-methylpropan-2-yl)phenyl)-4-(1-methyl-5-(2-(5,6,7,8-tetrahydro-1,8-naphthyridin-2-yl)ethoxy)-1H-pyrazol-3-yl) butanoic acid], the IC50 in experiment [1] turned out to be 140 nM; in experiment [2] it was 2 nM; in experiment [3] it was 20 nM; in experiment [4], 160 nM.
As to `Cn1nc(CC(CC(=O)O)c2cc(C(C)(C)C)cc(C3(C(F)F)CC3)c2)cc1OCCc1ccc2c(n1)NCCC2` (stereo not shown) [Example 6, 3-(3-(tert-butyl)-5-(1-(difluoromethyl)cyclopropyl)phenyl)-4-(1-methyl-5-(2-(5,6,7,8-tetrahydro-1,8-naphthyridin-2-yl)ethoxy)-1H-pyrazol-3-yl)butanoic acid], the IC50 in experiment [1] is 120 nM; in experiment [2], 6 nM; in experiment [3], 15 nM; in experiment [4], 54 nM.
Take `Cn1nc(CC(CC(=O)O)c2cc(C(C)(C)C)cc(C(C)(C)CO)c2)cc1OCCc1ccc2c(n1)NCCC2` (stereo not shown) [Example 7, 3-[3-tert-butyl-5-(2-hydroxy-1,1-dimethyl-ethyl)phenyl]-4-[1-methyl-5-[2-(5,6,7,8-tetrahydro-1,8-naphthyridin-2-yl)ethoxy]pyrazol-3-yl]butanoic acid]: the IC50 in experiment [1] stood at 17 nM; in experiment [2] it was 1 nM; in experiment [3] it was 18 nM; in experiment [4], 27 nM.
Take `Cn1nc(CC(CC(=O)O)c2cc(Cl)cc(C(C)(C)C#N)c2)cc1OCCc1ccc2c(n1)NCCC2` (stereo not shown) [Example 8, 3-(3-chloro-5-(2-cyanopropan-2-yl)phenyl)-4-(1-methyl-5-(2-(5,6,7,8-tetrahydro-1,8-naphthyridin-2-yl)ethoxy)-1H-pyrazol-3-yl)butanoic acid]: the IC50 in experiment [1] stood at 3 nM; in experiment [2], 3 nM; in experiment [3], 3 nM; in experiment [4] it was 0.3 nM.
Take `Cn1nc(CC(CC(=O)O)c2cc(C(C)(C)C)cc(C(C)(C)C#N)c2)cc1OCCc1ccc2c(n1)NCCC2` (stereo not shown) [Example 9, 3-[3-tert-butyl-5-(1-cyano-1-methyl-ethyl)phenyl]-4-[1-methyl-5-[2-(5,6,7,8-tetrahydro-1,8-naphthyridin-2-yl)ethoxy]pyrazol-3-yl]butanoic acid]: the IC50 in experiment [1] turned out to be 38 nM; in experiment [2] it was 1 nM; in experiment [3], 8 nM; in experiment [4] it was 32 nM.
`COc1c(C(C)(C)C)cc(C(CC(=O)O)Cc2cc(OCCc3ccc4c(n3)NCCC4)n(C)n2)cc1C(C)(C)C` (stereo not shown) [Example 10, 3-(3,5-di-tert-butyl-4-methoxyphenyl)-4-(1-methyl-5-(2-(5,6,7,8-tetrahydro-1,8-naphthyridin-2-yl)ethoxy)-1H-pyrazol-3-yl)butanoic acid]: the IC50 in experiment [1] stood at 410 nM; in experiment [2], 15 nM; in experiment [3], 92 nM; in experiment [4] it was 84 nM.
Turning to `COc1c(C(CC(=O)O)Cc2cc(OCCc3ccc4c(n3)NCCC4)n(C)n2)cc(C(C)(C)C)cc1C(C)(C)C` (stereo not shown) [Example 11, 3-(3,5-di-tert-butyl-2-methoxyphenyl)-4-(1-methyl-5-(2-(5,6,7,8-tetrahydro-1,8-naphthyridin-2-yl)ethoxy)-1H-pyrazol-3-yl)butanoic acid], the IC50 in experiment [1] was determined as 13000 nM; in experiment [2], 15000 nM; in experiment [3] it was 740 nM; in experiment [4], 17000 nM.
The like results for `COc1c(Br)cc(C(C)(C)C)cc1C(CC(=O)O)Cc1cc(OCCc2ccc3c(n2)NCCC3)n(C)n1` (stereo not shown) [Example 12, 3-(3-bromo-5-(tert-butyl)-2-methoxyphenyl)-4-(1-methyl-5-(2-(5,6,7,8-tetrahydro-1,8-naphthyridin-2-yl)ethoxy)-1H-pyrazol-3-yl)butanoic acid] were, in that order, 90 nM, 180 nM, 17 nM and 160 nM.

As a reminder, the IC50 is the concentration that inhibits the measured activity by half.
